{"source": "paper PMC8424097", "about": "“Population Pharmacokinetics of Polymyxin B and Dosage Optimization in Renal Transplant Patients” (Frontiers in Pharmacology, 2021)", "key": {"[1]": {"assay": "Population pharmacokinetic analysis of polymyxin B in renal transplant patients (plasma, HPLC-MS/MS, Phoenix NLME)", "format": "in vivo, human", "experimental": "This prospective study was approved by the Ethics Committee of the Second Xiangya Hospital, Central South University. Informed consent was obtained from all patients or legal representatives of the patients (No. ChiCTR1900022231). Renal transplant patients (aged ≥18 years) who received intravenous polymyxin B (sulfate; Polymyxin B for Injection, China, SPH NO.1 BIOCHEMICAL and PHARMACEUTICAL CO. LTA) for ≥48 h were enrolled. Patients were excluded if they were pregnant, allergic or intolerant to polymyxin B and lacked the necessary data (weight or some renal function index).\nAll patients accepted at least 3 days of polymyxin B infusion, and the administration interval of polymyxin B was 12 h with an infusion duration of 60–120 min. One to six blood samples (2 mL) were randomly collected 30 min before the sixth dose of polymyxin B and at 0, 0.5, 1, 2, 4, 6, and 8 h after the end of infusion. Blood samples were centrifuged for 10 min (3,400 rpm/min), and the supernatant was immediately stored at −80°C until analysis. A validated high-performance liquid chromatography-tandem mass spectrometry (HPLC-MS/MS) was used to measure the concentrations of polymyxin B1 and polymyxin B2 ([Thomas et al., 2012]). Briefly, a Shim-pack GIST C18 (2.1*100 mm, 3 μm, Shimadzu) column was used. Gradient chromatography was performed with solvent A (0.1% formic acid in water) and solvent B (acetonitrile). The following gradient elution was performed at a total flow of 0.6 ml/min for analyte elution: 10–60% B from 0 to 5 min, 60%–90% B from five to 5.10 min, 90% from 5.10 to 6 min, 90%–10% B from six to 6.10 min, and 10% B from 6.10 to 10.0 min. The elution time was 10 min, and the injection volume was 2 μL. The interday precision was <12%, the intraday precision was <9%, and the accuracy ranged from 96.1 to 110.4%. The limit of quantification was 0.03 mg/L.\n(§1) The following data were collected: age; sex; weight; maintenance doses; time and route of administration; site of infection; microbes; comorbidities; liver function indexes, such as alanine aminotransferase (ALT), aspartate aminotransferase (AST), total bilirubin (TBIL), direct bilirubin (DBIL), and albumin (ALB); and renal function indexes, such as uric acid (UA), blood urea nitrogen (BUN), and CrCL. CrCL was calculated according to the Cockcroft-Gault equation ([Janmahasatian et al., 2005]). CrCL ≤80 ml/min was defined as renal dysfunction, and when the basic CrCL decreased by more than 25%, nephrotoxicity was defined. Risk, injury, failure, loss and end-stage renal disease criteria were used to define acute kidney injury (AKI) in patients ([Bellomo et al., 2004]). Neurotoxicity was defined when any neurological symptoms or signs occurred during polymyxin B treatment, including dizziness, vertigo, visual disturbances, confusion, hallucinations, ataxia, seizures, and facial and peripheral paresthesia. The observed AUC0–24h of patients was calculated by daily dose/CL.\nThe concentration-time data of polymyxin B were analyzed with a nonlinear mixed effect modeling approach with the Phoenix NLME program (version 8.1. Pharsight, A Certara Company, United States of America). The first-order conditional estimation-extended least square method (FOCE-ELS) was used to develop the PPK model. One- and two-compartment models with linear elimination were evaluated for structure model selection based on the objective function value (OFV) and Akaike information criterion (AIC). The interindividual variability of PK parameters was described by an exponential error model. Residual variability was selected with an additive error model, proportional error model and combined error model. The covariates considered for the modeling included age, weight, ALT, AST, TBIL, DBIL, ALB, BUN, UA, and CrCL. The median of the covariate was used to normalize the covariate, and a stepwise method was used to screen the covariates. […]"}, "[2]": {"assay": "Adverse effects (nephrotoxicity, neurotoxicity, skin) during polymyxin B treatment of renal transplant patients", "format": "in vivo, human", "experimental": "as §1"}, "[3]": {"conditions": "cited from earlier work", "experimental": "According to the results from previous pharmacokinetics and pharmacodynamics (PK/PD) studies, the bactericidal activity of polymyxin B is best correlated with the area under the concentration-time curve over 24 h in steady state divided by the minimum inhibitory concentration (AUC0–24h/MIC) ([Mohamed et al., 2012]). Moreover, the latest guidelines recommended a target plasma AUC0–24h of 50–100 mg⋅h/L to achieve bactericidal activity against an isolate with an MIC of 2 mg/L (the EUCAST and CLSI breakpoints) ([Tsuji et al., 2019]). However, due to the lack of rigorous PK data, the optimal dosing ... || Monte Carlo simulations (n = 1,000) were conducted using metrics to determine the PTA for fAUC0–24h/MIC ≥20 at various MICs (0.5–2 mg/L) in patients with different renal functions (CrCL: 10–80 ml/min), where f is the unbound fraction of polymyxin B (assumed to be 0.42) ([Sandri et al., 2013b]). The dosages were selected according to the most commonly used regimens in renal transplant patients. The regimens were as follows with a 2 h infusion: a single 50 mg loading dose followed by either 30 mg every 12 h or 40 mg every 12 h, either a loading dose of 75 mg or 100 mg followed by 50 mg every 12 ... || In the present study, a one-compartment model was used to describe the original data, which was consistent with some of the previous studies ([Kubin et al., 2018]; [Manchandani et al., 2018]). […] This difference might be mainly due to impaired renal function in the renal transplant patients in this study (CrCL: 20.89 ml/min, range: 4.29–78.84 ml/min) because we identified CrCL as a significant predic ... || (+ 1 further places)"}, "[4]": {"conditions": "rats, 6 h after dosing; ref Manchandani et al., 2015; cited from earlier work", "experimental": "Polymyxin B is mainly distributed in the kidney, and the renal tissue/serum concentration ratio of polymyxin B was 19.62 at 6 h after dosing in rats ([Manchandani et al., 2015]). Therefore, the variation in polymyxin B accumulation in the kidney might be responsible for the differences in the apparent volume of distribution. In addition t ..."}, "[5]": {"conditions": "cited from earlier work", "text": "It is well known that nephrotoxicity is the major adverse effect of polymyxin B, with a wide range from 26.9 to 60% ([Plachouras et al., 2009]; [Akajagbor et al., 2013]; [Dubrovskaya et al., 2015]; [Rigatto et al., 2015]). In the present study, however, the incidence of AKI was extremely low, with only five patients showing nephrotoxicity. As polymyxin B-induced nephrotoxicity is a dose-limiting adverse effect, our result seemed to be consistent with the previous finding that patients with renal impairment might have a lower incidence of AKI due to the decreased percentage of tubular reabsorpt ... || The incidence of neurotoxicity was much higher than noted before (62.0 vs 7%) and has become the dose-limiting factor in our study ([Arnold et al., 2007]). […] Considering their similar structures, this mechanism might also fit polymyxin B; therefore, the higher exposure of p ...", "remark": "listed apart in the source"}, "[6]": {"conditions": "of 50 renal transplant patients"}, "[7]": {"conditions": "patients of previous studies, ref Kubin et al., 2018, Manchandani et al."}}, "note": "Positions of bridges follow the written chain, without caps; N, C: chain ends. Non-standard residues stand in square brackets, D forms with d. Residues, ends and D or L forms follow the SMILES beside them. *: point of attachment. X1 = CC[C@H](C)CCCCC(=O)*; Dab = NCC[C@H](N)C(=O)O", "data": [{"compound": "CC[C@H](C)CCCCC(=O)N[C@@H](CCN)C(=O)N[C@H](C(=O)N[C@@H](CCN)C(=O)N[C@H]1CCNC(=O)[C@H]([C@@H](C)O)NC(=O)[C@H](CCN)NC(=O)[C@H](CCN)NC(=O)[C@H](CC(C)C)NC(=O)[C@@H](Cc2ccccc2)NC(=O)[C@H](CCN)NC1=O)[C@@H](C)O", "note": "[polymyxin B] (X1-[Dab]T[Dab][Dab][Dab][dF]L[Dab][Dab]T; lactam 4-C)", "values": [{"measurement": "CL, bootstrap median", "setting": "[1]; bootstrap, 1000 resamples", "result": 1.17, "unit": "L/h"}, {"measurement": "V, bootstrap median", "setting": "[1]; bootstrap, 1000 resamples", "result": 11.98, "unit": "L"}, {"measurement": "Θ CrCL, bootstrap median", "setting": "[1]; bootstrap, 1000 resamples", "result": 0.14}, {"measurement": "mean AUC0–24h (observed)", "setting": "[1]; calculated by daily dose/CL, mean ± SD, SD", "result": "74600 ± 17810", "unit": "ng·h/mL"}, {"measurement": "Θ CrCL (exponent for CrCL as a covariate for CL), final model estimate", "setting": "[1]; final PPK model", "result": 0.14}, {"measurement": "Vd", "setting": "[1]; human, intravenous q 12 h, one-compartment PPK model, 151 plasma samples from 50 patients, HPLC-MS/MS, read-out: V, final model estimate", "result": 12.1, "unit": "L"}, {"measurement": "clearance", "setting": "[1]; human, intravenous q 12 h, one-compartment PPK model, typical value at CrCL 22.2 ml/min, 151 plasma samples from 50 patients, read-out: CL, final model estimate (converted)", "result": 19.7, "unit": "mL/min"}, {"measurement": "incidence of dermatitis", "setting": "[2]; 50 renal transplant patients", "result": 34.0, "unit": "%"}, {"measurement": "incidence of neurotoxicity", "setting": "[2]; 50 renal transplant patients", "result": 62.0, "unit": "%"}, {"measurement": "nephrotoxicity classified as injury (RIFLE)", "setting": "[2]; [6]", "result": "one"}, {"measurement": "nephrotoxicity classified as risk (RIFLE)", "setting": "[2]; [6]", "result": "four"}, {"measurement": "patients with dermatitis", "setting": "[2]; [6]", "result": "Seventeen"}, {"measurement": "patients with dizziness", "setting": "[2]; [6]", "result": "three"}, {"measurement": "patients with facial and peripheral paresthesia", "setting": "[2]; [6]", "result": 29, "unit": "patients"}, {"measurement": "patients with nephrotoxicity (basic CrCL decreased by more than 25%)", "setting": "[2]; [6]", "result": "five"}, {"measurement": "patients with neurotoxicity of different degrees", "setting": "[2]; [6]", "result": 31, "unit": "patients"}, {"measurement": "patients with seizures", "setting": "[2]; [6]", "result": "three"}, {"measurement": "patients with pigmentation", "setting": "[2]; of 50 renal transplant patients, all disappeared 1 month after withdrawal", "result": "Seven"}, {"measurement": "days printed for the nephrotoxicity case classified as injury", "setting": "[2]; renal transplant patients", "result": 11, "unit": "days"}, {"measurement": "days printed for the nephrotoxicity cases (all five)", "setting": "[2]; renal transplant patients", "result": "3 to 11", "unit": "days"}, {"measurement": "days printed for the nephrotoxicity cases classified as risk", "setting": "[2]; renal transplant patients", "result": "3 to 7", "unit": "days"}, {"measurement": "CL reported in previous one-compartment models", "setting": "[3]; [7]", "result": "2.37 to 2.5", "unit": "L/h"}, {"measurement": "V reported by previous studies", "setting": "[3]; [7]", "result": "34.3 to 34.4", "unit": "L"}, {"measurement": "urinary recovery (range between patients)", "setting": "[3]; previous study in patients, ref Sandri et al., 2013b", "result": "0.98–17.4%"}, {"measurement": "patients achieving the AUC0–24h target at the recommended dosage", "setting": "[3]; ref Lakota et al., 2018", "result": 71, "unit": "%"}, {"measurement": "unbound fraction f (assumed)", "setting": "[3]; used for fAUC0–24h/MIC in the simulations, ref Sandri et al., 2013b", "result": 0.42}, {"measurement": "renal tissue/serum concentration ratio", "setting": "[4]", "result": 19.62}, {"measurement": "incidence of neurotoxicity noted before", "setting": "[5]; ref Arnold et al., 2007", "result": 7, "unit": "%"}, {"measurement": "incidence of nephrotoxicity (range of previous reports)", "setting": "[5]; ref Plachouras et al., 2009, Akajagbor et al., 2013, Dubrovskaya et al., 2015, Rigatto et al., 2015", "result": "26.9 to 60", "unit": "%"}]}]}
